One block for each molecule: values may come before it. Active and inactive are the calls of the source.
What was measured:
ORF 73 = ORF 73 (Human herpesvirus 8, UniProt O40947); test: inhibitors of C-LANA binding to LBS DNA, dose response, biochemical, fluorescence polarization, cherry-picked samples (AID 504725); set-up: species or system Human gammaherpesvirus 8;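 also: fluorescence polarization of a labeled DNA duplex reporting LANA DNA binding; potency is for inhibitors that block LANA binding to the DNA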
[1] = target: Dual specificity protein kinase CLK4 (Homo sapiens, UniProt Q9HAZ1); assay type: functional
Aurora kinase A = target: T1, Aurora kinase A (Homo sapiens, UniProt O14965); assay type: functional;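 also: value from the Navigating the Kinome kinase panel profiling, panel entry STK6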
T1 sequence (O14965 whole entry): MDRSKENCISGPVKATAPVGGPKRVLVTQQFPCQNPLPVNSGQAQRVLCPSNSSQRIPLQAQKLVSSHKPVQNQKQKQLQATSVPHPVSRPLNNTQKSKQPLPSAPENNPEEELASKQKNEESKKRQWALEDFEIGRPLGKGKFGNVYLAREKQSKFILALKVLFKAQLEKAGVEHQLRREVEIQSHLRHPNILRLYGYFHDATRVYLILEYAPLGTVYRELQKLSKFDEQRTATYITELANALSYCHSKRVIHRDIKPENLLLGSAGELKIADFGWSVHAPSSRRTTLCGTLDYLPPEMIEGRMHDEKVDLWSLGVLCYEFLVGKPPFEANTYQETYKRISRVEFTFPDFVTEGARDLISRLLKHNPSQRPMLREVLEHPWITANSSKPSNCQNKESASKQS

[2] = target: Ribosomal protein S6 kinase beta-1 (Homo sapiens, UniProt P23443); assay type: functional;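 also: measured as one member of a kinome-wide profiling panel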
[3] = target: Ribosomal protein S6 kinase alpha-3 (Homo sapiens, UniProt P51812); assay type: functional;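 also: measured within a kinome-wide profiling panel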
[4] = target: Serine/threonine-protein kinase PLK3 (Homo sapiens, UniProt Q9H4B4); assay type: functional
[5] = target: Testis-specific serine/threonine-protein kinase 2 (Homo sapiens, UniProt Q96PF2); assay type: functional;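 also: part of the Navigating the Kinome panel, target entry STK22B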
[6] = target: Serine/threonine-protein kinase BRSK1 (Homo sapiens, UniProt Q8TDC3); assay type: functional;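 also: measured within a kinome-wide kinase panel, with the target listed as KIAA1811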
[7] = target: STE20-like serine/threonine-protein kinase (Homo sapiens, UniProt Q9H2G2); assay type: functional
[8] = target: Serine/threonine-protein kinase Nek2 (Homo sapiens, UniProt P51955); assay type: functional
[9] = target: Dual specificity tyrosine-phosphorylation-regulated kinase 3 (Homo sapiens, UniProt O43781); assay type: functional;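 also: measured as one member of a broad kinase panel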
[10] = target: Serine/threonine-protein kinase pim-2 (Homo sapiens, UniProt Q9P1W9); assay type: functional;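 also: value comes from a broad kinase panel profiling study in which PIM2 was one of the panel members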
Chain of Serine/threonine-protein kinase pim-2 (Q9P1W9 whole entry): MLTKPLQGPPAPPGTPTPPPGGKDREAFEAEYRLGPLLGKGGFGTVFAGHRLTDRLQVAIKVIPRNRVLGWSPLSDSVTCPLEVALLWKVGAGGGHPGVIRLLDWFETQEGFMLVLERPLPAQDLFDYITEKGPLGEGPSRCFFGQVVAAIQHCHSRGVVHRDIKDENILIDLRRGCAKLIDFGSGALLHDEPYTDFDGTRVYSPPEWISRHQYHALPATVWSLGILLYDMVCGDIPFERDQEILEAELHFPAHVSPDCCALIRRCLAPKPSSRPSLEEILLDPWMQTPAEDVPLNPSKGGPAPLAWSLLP

Chain of Serine/threonine-protein kinase BRSK1 (Q8TDC3 whole entry): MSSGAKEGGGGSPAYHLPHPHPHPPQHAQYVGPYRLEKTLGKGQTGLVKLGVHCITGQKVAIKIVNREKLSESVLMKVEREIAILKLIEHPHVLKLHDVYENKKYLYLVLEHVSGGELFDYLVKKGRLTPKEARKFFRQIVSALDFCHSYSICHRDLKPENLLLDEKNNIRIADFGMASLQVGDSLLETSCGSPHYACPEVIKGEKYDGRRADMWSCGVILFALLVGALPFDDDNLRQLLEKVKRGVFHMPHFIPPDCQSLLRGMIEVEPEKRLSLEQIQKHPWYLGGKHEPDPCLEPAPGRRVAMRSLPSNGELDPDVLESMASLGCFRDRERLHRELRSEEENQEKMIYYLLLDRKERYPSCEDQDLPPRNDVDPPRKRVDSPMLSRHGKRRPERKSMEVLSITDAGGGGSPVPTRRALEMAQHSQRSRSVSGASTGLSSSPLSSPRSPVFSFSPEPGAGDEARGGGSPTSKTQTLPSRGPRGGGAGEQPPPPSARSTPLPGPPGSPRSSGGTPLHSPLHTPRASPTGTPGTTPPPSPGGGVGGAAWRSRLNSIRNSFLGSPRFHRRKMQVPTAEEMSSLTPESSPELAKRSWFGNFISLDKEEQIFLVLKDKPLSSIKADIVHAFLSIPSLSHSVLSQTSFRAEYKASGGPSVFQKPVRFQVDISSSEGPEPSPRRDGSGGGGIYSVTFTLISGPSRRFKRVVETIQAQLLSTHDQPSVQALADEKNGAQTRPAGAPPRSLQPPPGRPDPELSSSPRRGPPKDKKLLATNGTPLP
Chain of Dual specificity tyrosine-phosphorylation-regulated kinase 3 (O43781 whole entry): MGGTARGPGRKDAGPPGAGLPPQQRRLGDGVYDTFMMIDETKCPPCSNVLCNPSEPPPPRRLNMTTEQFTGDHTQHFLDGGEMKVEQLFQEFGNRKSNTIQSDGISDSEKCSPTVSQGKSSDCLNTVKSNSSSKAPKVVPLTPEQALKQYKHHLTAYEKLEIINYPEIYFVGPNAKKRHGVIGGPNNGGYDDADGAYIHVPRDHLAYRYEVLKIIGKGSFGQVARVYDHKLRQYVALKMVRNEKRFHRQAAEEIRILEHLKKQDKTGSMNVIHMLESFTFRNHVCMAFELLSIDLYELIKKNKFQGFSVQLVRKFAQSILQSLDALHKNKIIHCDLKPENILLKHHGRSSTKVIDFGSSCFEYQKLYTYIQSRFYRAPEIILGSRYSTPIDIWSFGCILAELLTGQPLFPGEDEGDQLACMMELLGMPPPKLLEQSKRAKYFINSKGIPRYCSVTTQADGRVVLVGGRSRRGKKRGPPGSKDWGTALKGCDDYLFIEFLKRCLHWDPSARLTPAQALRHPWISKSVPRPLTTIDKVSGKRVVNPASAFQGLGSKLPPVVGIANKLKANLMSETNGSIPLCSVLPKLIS
Chain of STE20-like serine/threonine-protein kinase (Q9H2G2 whole entry): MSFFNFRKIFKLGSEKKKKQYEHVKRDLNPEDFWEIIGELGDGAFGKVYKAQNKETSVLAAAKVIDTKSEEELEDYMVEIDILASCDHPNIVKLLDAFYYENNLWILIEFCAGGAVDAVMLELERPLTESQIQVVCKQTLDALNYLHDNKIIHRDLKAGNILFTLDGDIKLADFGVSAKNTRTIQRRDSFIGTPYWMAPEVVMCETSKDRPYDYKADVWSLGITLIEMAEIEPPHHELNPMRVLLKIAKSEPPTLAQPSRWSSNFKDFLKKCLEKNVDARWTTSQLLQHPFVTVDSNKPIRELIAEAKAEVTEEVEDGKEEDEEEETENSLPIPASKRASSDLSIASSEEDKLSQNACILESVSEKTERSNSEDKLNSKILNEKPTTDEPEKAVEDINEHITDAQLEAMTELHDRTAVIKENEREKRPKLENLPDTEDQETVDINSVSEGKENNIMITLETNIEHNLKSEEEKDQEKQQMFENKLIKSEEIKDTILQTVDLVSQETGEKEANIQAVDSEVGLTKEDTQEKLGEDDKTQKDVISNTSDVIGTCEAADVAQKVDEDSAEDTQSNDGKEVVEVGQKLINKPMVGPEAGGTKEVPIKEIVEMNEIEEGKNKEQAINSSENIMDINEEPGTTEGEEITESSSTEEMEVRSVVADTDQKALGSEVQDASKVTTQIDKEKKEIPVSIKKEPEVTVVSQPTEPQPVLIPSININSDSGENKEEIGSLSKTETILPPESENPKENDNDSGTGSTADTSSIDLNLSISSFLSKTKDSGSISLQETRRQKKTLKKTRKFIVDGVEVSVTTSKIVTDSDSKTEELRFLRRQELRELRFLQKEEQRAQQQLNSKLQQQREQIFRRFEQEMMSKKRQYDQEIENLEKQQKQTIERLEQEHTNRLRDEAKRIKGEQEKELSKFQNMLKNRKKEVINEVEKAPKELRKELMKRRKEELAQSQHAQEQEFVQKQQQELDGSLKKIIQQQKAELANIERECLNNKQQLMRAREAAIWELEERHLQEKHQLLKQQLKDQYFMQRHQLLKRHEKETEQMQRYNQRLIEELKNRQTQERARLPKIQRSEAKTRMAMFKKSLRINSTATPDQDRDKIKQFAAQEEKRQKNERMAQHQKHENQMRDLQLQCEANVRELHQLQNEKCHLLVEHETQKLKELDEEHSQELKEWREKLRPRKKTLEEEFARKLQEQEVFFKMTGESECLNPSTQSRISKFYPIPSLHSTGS
Chain of Ribosomal protein S6 kinase beta-1 (P23443 whole entry): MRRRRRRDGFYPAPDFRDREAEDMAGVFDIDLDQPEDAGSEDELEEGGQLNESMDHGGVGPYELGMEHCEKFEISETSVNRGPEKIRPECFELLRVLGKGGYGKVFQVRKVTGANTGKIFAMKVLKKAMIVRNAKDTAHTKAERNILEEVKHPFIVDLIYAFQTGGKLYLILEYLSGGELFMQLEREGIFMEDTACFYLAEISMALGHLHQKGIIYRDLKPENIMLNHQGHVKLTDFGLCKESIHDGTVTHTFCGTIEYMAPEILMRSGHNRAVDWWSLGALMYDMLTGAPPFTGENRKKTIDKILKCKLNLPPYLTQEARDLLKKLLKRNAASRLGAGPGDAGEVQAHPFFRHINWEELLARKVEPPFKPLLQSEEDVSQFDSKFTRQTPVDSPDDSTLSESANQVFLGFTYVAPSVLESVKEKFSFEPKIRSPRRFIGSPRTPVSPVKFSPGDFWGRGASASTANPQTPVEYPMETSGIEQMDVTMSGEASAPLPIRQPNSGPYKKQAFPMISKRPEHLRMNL
Chain of Serine/threonine-protein kinase Nek2 (P51955 whole entry): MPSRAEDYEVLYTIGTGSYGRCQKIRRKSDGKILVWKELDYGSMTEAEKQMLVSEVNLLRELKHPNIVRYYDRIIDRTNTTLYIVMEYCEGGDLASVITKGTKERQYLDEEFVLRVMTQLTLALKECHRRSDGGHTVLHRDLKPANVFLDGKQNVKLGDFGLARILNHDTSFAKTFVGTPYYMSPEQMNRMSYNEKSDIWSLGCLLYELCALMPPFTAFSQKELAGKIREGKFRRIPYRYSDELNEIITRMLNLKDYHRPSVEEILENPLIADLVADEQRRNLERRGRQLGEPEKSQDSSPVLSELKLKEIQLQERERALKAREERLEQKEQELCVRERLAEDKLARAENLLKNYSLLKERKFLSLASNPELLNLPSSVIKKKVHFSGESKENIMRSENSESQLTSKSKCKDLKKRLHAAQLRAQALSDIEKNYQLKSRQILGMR
Chain of Ribosomal protein S6 kinase alpha-3 (P51812 whole entry): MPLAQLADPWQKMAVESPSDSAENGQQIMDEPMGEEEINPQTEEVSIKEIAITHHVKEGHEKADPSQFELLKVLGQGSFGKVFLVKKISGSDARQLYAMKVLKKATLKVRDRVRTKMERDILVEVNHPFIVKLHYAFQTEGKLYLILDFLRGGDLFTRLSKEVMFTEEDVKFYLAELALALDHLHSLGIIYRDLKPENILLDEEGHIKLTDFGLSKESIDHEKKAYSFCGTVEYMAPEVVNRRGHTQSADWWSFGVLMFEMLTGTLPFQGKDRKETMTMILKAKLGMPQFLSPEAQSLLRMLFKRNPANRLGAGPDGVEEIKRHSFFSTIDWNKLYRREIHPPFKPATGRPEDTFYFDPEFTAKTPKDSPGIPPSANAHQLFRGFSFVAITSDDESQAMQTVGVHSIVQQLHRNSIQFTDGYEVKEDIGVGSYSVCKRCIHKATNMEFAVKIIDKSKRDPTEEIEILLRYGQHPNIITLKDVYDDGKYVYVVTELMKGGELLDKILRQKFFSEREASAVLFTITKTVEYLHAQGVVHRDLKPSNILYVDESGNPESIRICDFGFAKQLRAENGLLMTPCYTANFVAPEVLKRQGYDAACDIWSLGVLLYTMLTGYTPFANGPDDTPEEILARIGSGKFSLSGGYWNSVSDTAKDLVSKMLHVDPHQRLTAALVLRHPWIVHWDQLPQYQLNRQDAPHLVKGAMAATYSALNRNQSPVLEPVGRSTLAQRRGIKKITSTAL
Chain of Testis-specific serine/threonine-protein kinase 2 (Q96PF2 whole entry): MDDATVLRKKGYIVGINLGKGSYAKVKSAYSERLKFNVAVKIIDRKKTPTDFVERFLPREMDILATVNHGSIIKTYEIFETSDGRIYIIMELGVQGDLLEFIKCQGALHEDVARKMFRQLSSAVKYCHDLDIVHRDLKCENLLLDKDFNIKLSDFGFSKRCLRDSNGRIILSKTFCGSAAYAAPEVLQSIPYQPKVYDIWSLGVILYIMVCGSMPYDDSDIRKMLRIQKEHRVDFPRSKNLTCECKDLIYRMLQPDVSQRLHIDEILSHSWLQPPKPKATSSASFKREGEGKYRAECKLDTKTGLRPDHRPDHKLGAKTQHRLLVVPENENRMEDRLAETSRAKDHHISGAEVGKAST

Compound: CCN(CC)CCCC(C)n1c2nc(=O)[nH]c(=O)c-2nc2cc(Cl)ccc21 (centres undefined)
AC50 (ORF 73): 370 nM (active)

Ki [1]: > 2510 nM (inactive)
Ki (Aurora kinase A): > 1580 nM (inactive)
Compound: COc1cccc(CNC(=O)c2cnc(-c3ccncc3)nc2)c1

Ki [2]: 100 nM (active)
pKi [2]: 7
Ki [3]: 100 nM (active)
pKi [3]: 7
Ki [4]: > 7940 nM (inactive)
Ki [5]: > 1580 nM (inactive)
Ki [6]: 1000 nM (active)
pKi [6]: 6
Ki [7]: 501 nM (active)
pKi [7]: 6.3
Ki [8]: 6310 nM (active)
pKi [8]: 5.2
Ki [9]: 5.01 nM (active)
pKi [9]: 8.3
Ki [10]: 398 nM (active)
pKi [10]: 6.4
Compound: OC1CCC(Nc2nc(Cl)cc(-c3c[nH]c4ncccc34)n2)CC1 (centres undefined)
